Assay results from PubChem BioAssay (NCI).
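The compound was tested at five concentrations on cells cultured in 96-well plates, with a 48-hour exposure period. TGI: total growth inhibition.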

Key:
Assay in all cases: inhibition of tumour cell growth, NCI panel, 48 h
HCT-15 colon = test system: HCT-15 colon
NCI-H460 lung = test system: NCI-H460 lung
MDA-MB-435 = test system: MDA-MB-435
SW-620 colon = test system: SW-620 colon
SK-OV-3 ovarian = test system: SK-OV-3 ovarian
A498 renal = test system: A498 renal
SK-MEL-28 melanoma = test system: SK-MEL-28 melanoma
MDA-N = test system: MDA-N
DU-145 prostate = test system: DU-145 prostate
BT-549 breast = test system: BT-549 breast

Structure (SMILES)	TGI (HCT-15 colon)	TGI (NCI-H460 lung)	TGI (MDA-MB-435)	TGI (SW-620 colon)	TGI (SK-OV-3 ovarian)	TGI (A498 renal)	TGI (SK-MEL-28 melanoma)	TGI (MDA-N)	TGI (DU-145 prostate)	TGI (BT-549 breast)
CC(C)CNP(=O)(NCC(C)C)Oc1ccc(CC(NC(=O)OCc2ccccc2)C(=O)OCc2ccccc2)cc1 (centres undefined)	89.6 µM	33.4 µM	22.8 µM	40.2 µM	29.2 µM	50.8 µM	30.5 µM	36 µM	24.3 µM	52.4 µM
CCOC(=O)N1CCNCCN(C(=O)OCC)CCNCC1	> 100 µM	> 100 µM	> 100 µM	> 100 µM		> 100 µM	> 100 µM	> 100 µM	> 100 µM	> 100 µM
COc1ccc(C2C(=O)c3ccc(OC)cc3OC2c2cccnc2)cc1 (centres undefined)	> 100 µM	> 100 µM	> 100 µM	> 100 µM	> 100 µM	> 100 µM	> 100 µM	> 100 µM	> 100 µM	> 100 µM
CC(C)Oc1cccc(N2C(CCc3c[nH]c4ccc(Br)cc34)=NS(=O)(=O)c3cnccc32)c1	> 100 µM	> 100 µM	> 100 µM	> 100 µM	> 100 µM	> 100 µM	> 100 µM	> 100 µM	> 100 µM	> 100 µM
CCNC(=S)N/N=C(/C)c1cccc(/C(C)=N\NC(=S)NCC)n1	> 57 µM	12.5 µM	> 100 µM	> 100 µM	73.8 µM	56.7 µM	> 100 µM	> 45.8 µM	> 36.6 µM	> 100 µM
CC(C)(C)C(=O)c1c(O)c2ccccc2c2ccccc2c1=O	> 100 µM	> 100 µM	> 100 µM	> 100 µM	> 100 µM	> 100 µM	> 100 µM	> 100 µM	> 100 µM	91.6 µM
O=C1Nc2noc(=O)nc2NO1	> 200 µM	> 200 µM	> 200 µM	> 200 µM	> 200 µM	> 200 µM	> 200 µM	> 200 µM	> 200 µM	> 200 µM
C/C(=N\NC(=S)NC(C)(C)C)c1nc2ncccc2[nH]1	> 100 µM	55 µM	> 78.4 µM	> 100 µM	12.6 µM	> 100 µM	> 100 µM	> 100 µM	> 57.5 µM	20.3 µM
C=CCOC(C)(C)C1=CCC(C)CC1 (centres undefined)	> 100 µM	> 100 µM	> 100 µM	> 100 µM	> 100 µM	> 100 µM	> 100 µM	> 100 µM	> 100 µM	> 100 µM
CCCCCCCCCCCCCCCCNc1nc(=O)n(C2OC(C)C(O)C2O)cc1F (centres undefined)	29.1 µM	33.9 µM	30.5 µM	46.8 µM	37.4 µM	39.1 µM	37.5 µM	39.3 µM	36 µM	35.1 µM
Cn1c2c(c3c(=O)[nH]ncc31)Cc1ccccc1-2	> 100 µM	15.1 µM	35.1 µM	91.2 µM	> 100 µM	27.5 µM	60.1 µM	34.8 µM	50.7 µM	60.5 µM
